Test results from patent publication US8058243B2, “Method for treating a brain cancer with ifenprodil” (HSC Research and Development Limited Partnership, priority 2006, dated 2011).
Counter-ions that a name gives are not always drawn. Like-named read-outs stand apart in the source and are kept apart here.

System: murine neural precursor cells (neurosphere cultures)
Assay: HTS of LOPAC library against secondary neurosphere cultures, MTT proliferation assay at 3 μM, day 7 (z score, P value)
Type: cell-based, mouse
[1] = LOPAC primary screen, neurosphere MTT proliferation, 3 μM, day 7
[2] = yes = significantly inhibited neurosphere proliferation (P<0.01) in the primary screen
[3] = yes/no: significantly inhibited neurosphere proliferation (P<0.01) in the primary screen
[4] = LOPAC library screen, 3 μM, MTT, secondary neurosphere cultures, day 7
[5] = yes/no: significantly inhibited neurosphere proliferation in primary screen
[6] = yes/no: significantly inhibited neurosphere proliferation (P<0.01) in primary screen
[7] = LOPAC library screen at 3 μM, secondary neurosphere cultures, MTT
[8] = primary LOPAC screen, 3 μM, MTT, neurosphere proliferation
[9] = yes/no: significantly inhibited neurosphere proliferation in the primary screen
[10] = LOPAC library screen, 3 μM, MTT, neurosphere cultures
[11] = LOPAC screen, neurosphere MTT proliferation, 3 μM, day 7

With `COc1ccc(CCN(C)CCCC(C#N)(c2cc(OC)c(OC)c(OC)c2)C(C)C)cc1OC.Cl` (racemic) [(±)-Methoxyverapamil hydrochloride] the Z score [1] was −1.407 and the Activity [2] was “no”.
For `COc1c2c(nc3ccccc13)OC(C(C)(O)CO)C2` (stereo not drawn) [Dubinidine], the “Z Score” value was −2.437, the Z score [1] was −2.437 and the Activity [3] was “yes”.
With `CC1CCN=C(N)S1.Cl` (racemic) [(±)-AMT hydrochloride] the Z score [1] was −2.366 and the Activity [2] was “yes”.
In the case of `Nc1ccncc1` [4-Aminopyridine], the “Z Score” value [4] is reported as −1.516, the Z score [1] is reported as −1.516 and the Activity [5] is reported as “no”.
In the case of R(−)-Isoproterenol (+)-bitartrate, the “Z Score” value [4] is reported as −1.485, the Z score [1] is reported as −1.485 and the Activity [6] is reported as “no”.
With `NC(=O)c1cc(N2CC2)c([N+](=O)[O-])cc1[N+](=O)[O-]` [CB 1954] the “Z Score” value [7] was −1.07, the Z score [8] was −1.070 and the Activity [9] was “no”.
For `NC(=O)C(=O)[O-].[Na+]` [Sodium Oxamate], the “Z Score” value (168 h, 3 µM) was 0.7449, the Z score (168 h, 3 µM) was 0.745 and the Activity [5] was “no”.
`CC(N)C(=O)OC(C)(C)Cc1ccc(Cl)cc1` (stereo not drawn) [Alaproclate hydrochloride] was tested, and the “Z Score” value (168 h, 3 µM) was −0.1725, the Z score (168 h, 3 µM) was −0.172 and the Activity [9] was “no”.
`COc1cc(C(O)C(=O)O)ccc1O` (stereo not drawn) [(B1)-Vanillylmandelic acid] was tested, and the “Z Score” value was −1.811.
In the case of `Cl.O=C(O)C1=CCCNC1` [Guvacine hydrochloride], the “Z Score” value is reported as −1.345, the Z score [1] is reported as −1.345 and the Activity [6] is reported as “no”.
In the case of `CC12CC3CC(C)(C1)CC(N)(C3)C2` [Memantine hydrochloride], the “Z Score” value [7] is reported as −0.141, the Z score [1] is reported as −0.141 and the Activity [2] is reported as “no”.
`C[C@@H]1C(=O)NC2=Nc3cccc(Cl)c3CN21` [Quazinone] was tested, and the “Z Score” value [10] was 0.2046, the Z score [1] was 0.205 and the Activity [5] was “no”.
With m-Iodobenzylguanidine hemisulfate the Activity was “yes”, the “Z Score” value was −2.564 and the Z score was −2.564.
`NC12CC3CC(CC(C3)C1)C2` [Amantadine hydrochloride] was tested, and the “Z Score” value [7] was −0.6531, the Z score [8] was −0.653 and the Activity [9] was “no”.
With `NC(CCCCCP(=O)(O)O)C(=O)O` (stereo not drawn) [(B1)-2-Amino-7-phosphonoheptanoic acid] the “Z Score” value was −1.02.
With `O=C1NC(=O)C(c2ccccc2)(c2ccccc2)N1` [5,5-Diphenylhydantoin] the “Z Score” value [10] was 1.383, the Z score [11] was 1.383 and the Activity [6] was “no”.
`CC(C)[C@@]1(NC(=O)[C@@H]2C=C3c4cccc5[nH]cc(c45)C[C@H]3N(C)C2)O[C@@]2(O)[C@@H]3CCCN3C(=O)[C@H](Cc3ccccc3)N2C1=O` [Ergocristine] was tested, and the “Z Score” value was 0.4078, the Z score [1] was 0.408 and the Activity [6] was “no”.
With `Cl.c1ccc([C@H]2CN3CCSC3=N2)cc1` [(−)-Teramisole hydrochloride] the Z score [1] was −1.866 and the Activity [6] was “no”.
`CC(CCc1ccccc1)NCC(O)c1ccc(O)c(C(N)=O)c1` (stereo not drawn) [Labetalol hydrochloride] was tested, and the Activity was “no”, the “Z Score” value [7] was −1.097 and the Z score [1] was −1.097.
`Nc1nc(Cl)nc2c1ncn2[C@@H]1O[C@H](CO)[C@@H](O)[C@H]1O` [2-Chloroadenosine] was tested, and the “Z Score” value (168 h, 3 µM) was −0.396, the Z score (168 h, 3 µM) was −0.396 and the Activity [6] was “no”.
With LY-310,762 hydrochloride the “Z Score” value was 0.05111, the Z score [1] was 0.051 and the Activity [3] was “no”.
In the case of `Cl.NC1(C(=O)O)CC1` [1-Aminocyclopropanecarboxylic acid hydrochloride], the Activity is reported as “yes”, the “Z Score” value is reported as −2.401 and the Z score is reported as −2.401.
`NC(=O)c1ccccc1C(=O)N[C@@H](CCC(=O)O)C(=O)O.[Na].[Na].[Na]` [Phthalamoyl-L-glutamic acid trisodium] was tested, and the “Z Score” value (168 h, 3 µM) was 0.2509, the Z score (168 h, 3 µM) was 0.251 and the Activity [5] was “no”.
In the case of `COC(=O)[C@H]1[C@H]2C[C@H]3c4[nH]c5ccccc5c4CCN3C[C@H]2CC[C@@H]1O` [Rauwolscine hydrochloride], the “Z Score” value (168 h, 3 µM) is reported as −1.747, the Z score (168 h, 3 µM) is reported as −1.747 and the Activity [5] is reported as “no”.
In the case of `CNC1(C)C2CCC(C2)C1(C)C` (stereo not drawn) [Mecamylamine hydrochloride], the “Z Score” value [4] is reported as −2.108, the Z score [1] is reported as −2.108 and the Activity [2] is reported as “no”.
In the case of `O=C1NCN(c2ccccc2)C12CCN(CC1COc3ccccc3O1)CC2` (stereo not drawn) [Spiroxatrine], the “Z Score” value [10] is reported as 0.1219, the Z score [1] is reported as 0.122 and the Activity [5] is reported as “no”.
In the case of `C(=C\c1ccccc1)/CN1CCN(C(c2ccccc2)c2ccccc2)CC1` [Cinnarizine], the “Z Score” value [4] is reported as −1.375 and the Z score [11] is reported as −1.375.
In the case of `COc1cc2c(c(OC)c1OC)-c1ccc(OC)c(=O)cc1[C@@H](NC(C)=O)CC2` [Colchicine], the Activity is reported as “yes”, the “Z Score” value is reported as −10.75 and the Z score is reported as −10.753.
In the case of `CCN(CC)C(=O)N[C@H]1C[C@@H]2c3cccc4[nH]cc(c34)C[C@H]2N(C)C1` [R(+)-Terguride], the “Z Score” value [4] is reported as −2.004, the Z score [8] is reported as −2.004 and the Activity [9] is reported as “no”.
With `Cc1nc2c([nH]1)c(=O)n(C)c(=O)n2Cc1ccco1` [Furafylline] the “Z Score” value [10] was 1.025, the Z score [1] was 1.025 and the Activity [6] was “no”.
`NNC(N)=O` [Semicarbazide hydrochloride] was tested, and the “Z Score” value was −1.405, the Z score [1] was −1.405 and the Activity [5] was “no”.
In the case of `O=c1oc(Cl)c(Cl)c2ccccc12` [3,4-Dichloroisocoumarin], the “Z Score” value (168 h, 3 µM) is reported as −1.12, the Z score (168 h, 3 µM) is reported as −1.120 and the Activity [6] is reported as “no”.
With `CCn1ccnc1CC1COc2ccccc2O1` (stereo not drawn) [Imiloxan hydrochloride] the “Z Score” value [7] was −0.9879, the Z score [1] was −0.988 and the Activity [6] was “no”.
With `COc1ccc2c3c1O[C@H]1C(=O)CC[C@@]4(O)[C@@H](C2)N(CC2CC2)CC[C@]314.Cl` [(−)-3-Methoxynaltrexone hydrochloride] the “Z Score” value was 0.5963, the Z score [1] was 0.596 and the Activity [3] was “no”.
`CCOC(=O)C1=C(C)NC(C)=C(C(=O)OC)C1c1cccc(Cl)c1Cl` (stereo not drawn) [Felodipine] was tested, and the “Z Score” value [7] was −0.9658 and the Z score [1] was −0.966.
For `CCN(CC)C(C)C(=O)N1c2ccccc2Sc2ccccc21.Cl` (stereo not drawn) [10-(alpha-Diethylaminopropionyl)-phenothiazine hydrochloride], the “Z Score” value was −1.545.
For `C=CCn1c(=O)c2c(nc(-c3ccc(S(=O)(=O)O)cc3)n2C)n(C)c1=O` [1-Allyl-3,7-dimethyl-8-p-sulfophenylxanthine], the “Z Score” value [4] was −2.178, the Z score [8] was −2.178 and the Activity [9] was “no”.
For `CC(C)(CO)Cc1cc(C(C)(C)C)c(O)c(C(C)(C)C)c1` [CGP-7930], the “Z Score” value was −0.411, the Z score [8] was −0.411 and the Activity [9] was “no”.
`CN(C)CCN(Cc1cccs1)c1ccccn1` [Methapyrilene hydrochloride] was tested, and the “Z Score” value [10] was 0.6276 and the Z score [1] was 0.628.
In the case of `CC(C)(Sc1ccc(CCN(CCCCC2CCCCC2)C(=O)NC2CCCCC2)cc1)C(=O)O` [GW7647], the “Z Score” value is reported as −0.9923, the Z score [1] is reported as −0.992 and the Activity [6] is reported as “no”.
`COc1ccc(OC)c(C(O)C(C)N)c1` (stereo not drawn) [Methoxamine hydrochloride] was tested, and the “Z Score” value [4] was −3.255, the Z score [1] was −3.255 and the Activity [3] was “yes”.
For `N[C@H](CCC(=O)NCS(=O)(=O)O)C(=O)O` [gamma-D-Glutamylaminomethylsulfonic acid], the “Z Score” value [10] was −0.04649, the Z score [1] was −0.046 and the Activity [6] was “no”.
In the case of “O-(Carboxymethyl)hydroxylamine hemihydrochloride”, the “Z Score” value is reported as −2.058, the Z score [8] is reported as −2.058 and the Activity [9] is reported as “no”.
With `Cl.O[Si](CCCN1CCCCC1)(c1ccc(F)cc1)C1CCCCC1` (stereo not drawn) the “Z Score” value [4] was −1.492, the Z score [1] was −1.492 and the Activity [6] was “no”.
In the case of `CC(C)NCC(O)c1ccc(O)c(O)c1.Cl` (stereo not drawn) [(B1)-Isoproterenol hydrochloride], the “Z Score” value is reported as −0.5717.
`COc1cccc(OC)c1OCCNCC1CSc2ccccc2O1` (stereo not drawn) [Benoxathian hydrochloride] was tested, and the “Z Score” value (168 h, 3 µM) was 0.2653, the Z score (168 h, 3 µM) was 0.265 and the Activity [6] was “no”.
With `CCc1cccc(N(C)C(N)=Nc2cccc3ccccc23)c1` [CNS-1102] the Activity was “yes”, the “Z Score” value [4] was −3.782 and the Z score [1] was −3.782.
`CNC(=O)[C@H]1O[C@@H](n2cnc3c(NCc4cccc(I)c4)nc(Cl)nc32)[C@H](O)[C@@H]1O` [Chloro-IB-MECA] was tested, and the “Z Score” value [7] was −0.8471, the Z score [11] was −0.847 and the Activity [6] was “no”.
In the case of `CCCCc1ccc(C(=O)O)nc1` [Fusaric acid], the “Z Score” value is reported as −0.1413 and the Z score [1] is reported as −0.141.
In the case of `Cn1c(=O)c2[nH]cnc2n(C)c1=O.Cn1c(=O)c2[nH]cnc2n(C)c1=O.NCCN` [Aminophylline ethylenediamine], the Activity is reported as “no”, the “Z Score” value [4] is reported as −1.537 and the Z score [8] is reported as −1.537.
With `CNC(=C[N+](=O)[O-])NCCSCc1ccc(CN(C)C)o1` [Ranitidine hydrochloride] the “Z Score” value [10] was 0.02275, the Z score [1] was 0.023 and the Activity [5] was “no”.
In the case of `CN(C)CCC(c1ccc(Cl)cc1)c1ccccn1.O=C(O)/C=C\C(=O)O` (stereo not drawn) [(B1)-Chlorpheniramine maleate], the “Z Score” value is reported as −2.116.
With `CN1CCC(c2c[nH]c3ccc(O)cc23)CC1.O=C(O)/C=C\C(=O)O` [BRL 54443 maleate] the “Z Score” value was 0.3378, the Z score [11] was 0.338 and the Activity [6] was “no”.
For `C[N+](C)(C)CC=O` [Betaine aldehyde chloride], the Activity was “no”, the “Z Score” value (168 h, 3 µM) was −0.07007 and the Z score (168 h, 3 µM) was −0.070.
NS 521 oxalate was tested, and the “Z Score” value was −11.27.
In the case of `O=C(O)C1CCCNC1` (stereo not drawn) [(B1)-Nipecotic acid], the “Z Score” value is reported as −0.7215.
In the case of `CC(C)(Oc1ccc(C2CC2(Cl)Cl)cc1)C(=O)O` (stereo not drawn) [Ciprofibrate], the “Z Score” value [4] is reported as −1.326, the Z score [11] is reported as −1.326 and the Activity [6] is reported as “no”.
